One data set concerns the target T1, human FSH receptor (Homo sapiens, UniProt P23945).
T1 construct: host or cells: CHO-K1 (CHO FSH-R 6CRE-Luc, 1D7 cells)
T1 sequence (P23945 18-695): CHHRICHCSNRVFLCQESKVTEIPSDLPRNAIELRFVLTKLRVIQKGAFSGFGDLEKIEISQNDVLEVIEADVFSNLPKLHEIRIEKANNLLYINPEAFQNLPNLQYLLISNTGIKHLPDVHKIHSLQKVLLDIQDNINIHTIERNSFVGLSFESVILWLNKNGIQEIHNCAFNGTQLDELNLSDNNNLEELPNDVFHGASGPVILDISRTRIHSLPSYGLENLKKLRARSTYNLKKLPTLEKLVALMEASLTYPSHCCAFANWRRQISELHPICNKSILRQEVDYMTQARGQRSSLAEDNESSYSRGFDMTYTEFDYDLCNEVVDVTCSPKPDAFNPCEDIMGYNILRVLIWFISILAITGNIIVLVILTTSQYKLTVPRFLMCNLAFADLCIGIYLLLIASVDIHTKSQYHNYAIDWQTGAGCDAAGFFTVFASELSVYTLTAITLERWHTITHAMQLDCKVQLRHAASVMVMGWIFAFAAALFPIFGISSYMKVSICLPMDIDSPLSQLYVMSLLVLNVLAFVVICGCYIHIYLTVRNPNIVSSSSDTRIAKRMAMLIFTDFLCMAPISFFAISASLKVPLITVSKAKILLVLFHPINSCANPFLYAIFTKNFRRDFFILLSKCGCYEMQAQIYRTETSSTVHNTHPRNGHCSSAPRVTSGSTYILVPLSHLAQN
Description: FSH receptor-dependent CRE-luciferase reporter gene assay (CHO FSH-R 6CRE-Luc cells). The format is cell-based. The following applies: dose-response format in presence of EC50 of purified human FSH; * n=3, ** n=2 averages. The method in brief: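 CHO-K1 cells stably expressing the recombinant human FSH receptor and a luciferase reporter controlled by 6 cAMP response elements were seeded at 50,000 cells/100 μl/well in 96-well white opaque plates. Antagonists were tested in dose-response against the EC50 of purified human FSH for 4 hours at 37° C, and luciferase chemiluminescence was read with a LucScreen kit.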
For orientation: A reporter such as luciferase makes a cellular process visible.

The next data set addresses T2, hFSH-R (Homo sapiens, UniProt P23945).
T2 construct: expressed in transfected cells; host or cells: CHO-3D2 cells (CHO-K1 parental line)
T2 sequence (P23945 18-695): T1 sequence (P23945 18-695)
The data set can be described thus: cAMP accumulation (RIA) in CHO-3D2 cells (hFSH-R), hFSH-induced. The format is cell-based. The conditions noted are these: inhibition of cAMP accumulation induced by hFSH at EC20, CHO-3D2 cells. As to the method:
IN VITRO BIO-ASSAY OF AGONISTS AND ANTAGONISTS TO THE FSH RECEPTOR. SELECTIVITY AND DEPENDENCY OF AGONISTS AND ANTAGONISTS TO THE FSH RECEPTOR
Compound Vehicle: Stock compounds were solubilized in 100% DMSO (Sigma-Aldrich Chemical Co., St. Louis, Mo.) at a concentration of 30 mM. The compounds subsequently were diluted in sterile assay medium consisting of Opti-MEM® I (Invitrogen/Life Technologies, Carlsbad, Calif.) with 0.1% (w/v) BSA (Sigma-Aldrich) prior to use in the bio-assay. The final concentration of DMSO in the assay was 0.1%.
Plated cells are then incubated at 37° C. in a humidified 5% CO2/95% air atmosphere.
Assay: On the day of the assay, cells were washed three times with 100 μl/well of assay medium consisting of Opti-MEM® I (Invitrogen/Life Technologies) with 0.1% (w/v) BSA (Sigma-Aldrich). Medium was removed and 100 μl of assay medium was added to each well. Plates were incubated for an additional 30 minutes at 37° C. […] Reactions were terminated by the addition of 50 μl of 0.2N hydrochloric acid to each well and cAMP-accumulation was measured by radioimmunoassay (RIA) using a commercially available kit (Amersham Biosciences, Piscataway, N.J.).
All test compounds were evaluated in a dose-response paradigm ranging from 0.01 to 30 μM. Controls and test compounds were evaluated in quadruplicate in a 96-well format.
Along with the test compounds, FSH was run also as a postive control in the agonist mode using concentrations ranging from 0.1-1000 ng/ml.
Data were analyzed by one-way analysis of variance and significant differences between treatments and control determined by Least Significant Difference test.
Test compounds were compared to the effect of purified human FSH.
On the technique in general: cAMP levels reflect the balance of adenylyl cyclase and phosphodiesterase activity.

Where “and” joins values, the source holds several entries; their conditions need not be identical. Equal entries are not always repeated.

In general, IC50 refers to the midpoint of a concentration-inhibition curve. Broadly, the melting point is the temperature, or range, at which the solid turns liquid. With `CC(O)c1ccccc1-c1ccc(C(=O)N2Cc3ccc(C(=O)NCc4cccnc4)n3Cc3ccccc32)cc1` (racemic) [Example 52], the melting point was 122 to 126 °C and 118 °C and 122 °C. Moreover, the IC50 at human FSH receptor was found to be 116 nM. The IC50 on hFSH-R was found to be 100 nM.

The compound `O=C(NCc1cccnc1)c1ccc2n1Cc1ccccc1N(C(=O)c1ccc(-c3ccccc3/C=N/O)cc1)C2` [Example 62] returned a melting point of 165 to 167 °C. In addition, the IC50 on human FSH receptor worked out at 1060 nM. In addition, inhibition on hFSH-R was half-maximal at 550 nM (IC50).

With `Cc1ccccc1-c1ccc(C(=O)N2Cc3ccc(C(=O)NCc4ccc[n+]([O-])c4)n3Cc3ccccc32)cc1C` [Example 4], the melting point lay within 170 to 173 °C. For the same compound, on human FSH receptor, the IC50 stood at 950 nM. The compound further came in with an IC50 against hFSH-R of 800 nM.

On to `O=C(NCc1cccnc1)c1ccc2n1Cc1ccccc1N(C(=O)c1ccc(-c3cccnc3)cc1)C2` [Example 108], for which the melting point lay in the range of 120 to 125 °C. Also, on human FSH receptor, the IC50 came out at 9530 nM. On hFSH-R, this compound yielded an IC50 of 1800 nM.

As to `CC(O)c1ccccc1-c1ccc(C(=O)N2Cc3ccc(C(=O)NCc4ccc[n+]([O-])c4)n3Cc3ccccc32)cc1` (stereo not drawn) [Example 55, 10-{[2′-(1-HYDROXYETHYL)-1,1′-BIPHENYL-4-YL]CARBONYL}-N-[(1-OXIDOPYRIDIN-3-YL)METHYL]-10,11-DIHYDRO-5H-PYRROLO[2,1-C][1,4]BENZODIAZEPINE-3-CARBOXAMIDE], the melting point is 213 to 215 °C. For the same compound, at human FSH receptor, the IC50 was found to be 1050 nM. The compound further came in with an IC50 against hFSH-R of 620 nM.

For the compound `O=C(NCc1cccnc1)c1ccc2n1Cc1ccccc1N(C(=O)c1ccc(-c3ncccn3)cc1)C2` [Example 105], the melting point lay within 234 to 236 °C. The half-maximal inhibitory concentration (IC50) at human FSH receptor was found to be 2480 nM. Moreover, at hFSH-R, the IC50 is 200 nM.

As to `O=C(NCc1cccnc1)c1ccc2n1Cc1ccccc1N(C(=O)c1ccc(-c3ccccc3CN3CCOCC3)cc1)C2` [Example 43], the melting point fell in the range of 191 to 194 °C. Besides, the IC50 on human FSH receptor amounted to 257 nM. On hFSH-R, this compound displayed an IC50 of 140 nM.

With `CCOc1ccccc1-c1ccc(C(=O)N2Cc3ccc(C(=O)NCc4cccnc4)n3Cc3ccccc32)cc1C` [Example 48], the melting point was in the range of 139 to 143 °C. Moreover, the IC50 on human FSH receptor came out at 1600 nM. For the same compound, the half-inhibitory concentration (IC50) at hFSH-R turned out to be 300 nM.

Regarding `O=C(NCc1cccnc1)c1ccc2n1Cc1ccccc1N(C(=O)c1ccc(N3CCCCC3)cc1)C2` [Example 113], the melting point is 196 to 197 °C (dec.). Also, the half-maximal inhibitory concentration (IC50) at human FSH receptor amounted to 8840 nM. For the same compound, inhibition against hFSH-R was half-maximal at 800 nM (IC50).

`NC(Cc1ccccc1-c1ccc(C(=O)N2Cc3ccc(C(=O)NCc4cccnc4)n3Cc3ccccc32)cc1)=NO` [Example 18] had a melting point of 131 to 134 °C. For the same compound, the half-maximal inhibitory concentration (IC50) at human FSH receptor turned out to be 41 nM. Besides, the IC50 against hFSH-R is 70 nM.

`CCC(O)c1ccccc1-c1ccc(C(=O)N2Cc3ccc(C(=O)NCc4cccnc4)n3Cc3ccccc32)cc1` (stereo not drawn) [Example 58] showed a melting point of 111 to 115 °C. On human FSH receptor, the IC50 came to 400 nM. Moreover, on hFSH-R, half-maximal inhibition (IC50) was put at 200 nM.

With `COc1ccccc1-c1ccc(C(=O)N2Cc3ccc(C(=O)NCc4cccnc4)n3Cc3ccccc32)cc1` [Example 8], the melting point lay within 123 to 127 °C. Besides, on human FSH receptor, the IC50 was determined as 540 nM. At hFSH-R, this compound displayed an IC50 of 500 nM.

The compound `O=C(NCc1cccnc1)c1ccc2n1Cc1ccccc1N(C(=O)c1ccc(-c3ccccn3)cc1)C2` [Example 107] registered a melting point of 159 to 161 °C. Besides, on human FSH receptor, the IC50 was determined as 3120 nM. The compound also showed an IC50 at hFSH-R of 200 nM.

In turn, `COc1ccccc1-c1ccc(C(=O)N2Cc3ccc(C(=O)NCc4cccnc4)n3Cc3ccccc32)cc1C` [Example 47] registered a melting point of 119 to 124 °C. In addition, on human FSH receptor, the IC50 is 650 nM. The compound further yielded an IC50 on hFSH-R of 200 nM.

For the compound `CNCc1ccccc1-c1ccc(C(=O)N2Cc3ccc(C(=O)NCc4cccnc4)n3Cc3ccccc32)cc1` [Example 42], the melting point lay within 149 to 150 °C. Further, on human FSH receptor, the IC50 turned out to be 7090 nM. In addition, the 50% inhibitory concentration (IC50) at hFSH-R came out at 2000 nM.

Compound `Cc1cc(C(=O)N2Cc3ccc(C(=O)NCc4cccnc4)n3Cc3ccccc32)ccc1I` [Example 74] registered a melting point of 176 to 177 °C. On human FSH receptor, the IC50 was found to be 10500 nM. Also, it took 3100 nM to reach half-maximal inhibition against hFSH-R (IC50).

`Cc1ccccc1-c1ccc(C(=O)N2Cc3ccc(C(=O)NCc4cccnc4)n3Cc3ccccc32)cc1` [Example 28] came in with a melting point of 176 to 177 °C. In addition, on human FSH receptor, the half-inhibitory concentration (IC50) turned out to be 2000 nM. The compound also came in with a concentration for half-maximal inhibition (IC50) at hFSH-R of 800 nM.

In the case of `COc1ccccc1-c1ccc(C(=O)N2Cc3ccc(C(=O)NCc4cncc(Br)c4)n3Cc3ccccc32)cc1` [Example 6, N-[(5-BROMOPYRIDIN-3-YL)METHYLL]-10-[(2′-METHOXY-1,1′-BIPHENYL-4-YL)CARBONYL]-10,11-DIHYDRO-5H-PYRROLO[2,1-C][1,4]BENZODIAZEPINE-3-CARBOXAMIDE], the melting point lay in the range of 180 to 184 °C. The IC50 on human FSH receptor worked out at 8900 nM. In addition, on hFSH-R, the IC50 was 5400 nM.

`CC(=O)c1ccccc1-c1ccc(C(=O)N2Cc3ccc(C(=O)NCc4cccnc4)n3Cc3ccccc32)cc1` [Example 51] had a melting point of 149 to 150 °C. Also, the IC50 on human FSH receptor turned out to be 290 nM. In addition, the IC50 on hFSH-R worked out at 100 nM.

The compound `O=C(NCc1cccnc1)c1ccc2n1Cc1ccccc1N(C(=O)c1ccc(-c3ccccc3CO)cc1)C2` [Example 59] had a melting point of 119 to 121 °C. The IC50 at human FSH receptor was 100 nM. The same compound came in with an IC50 against hFSH-R of 60 nM.

`COCc1ccccc1-c1ccc(C(=O)N2Cc3ccc(C(=O)NCc4cccnc4)n3Cc3ccccc32)cc1` [Example 61] displayed a melting point of 156 to 157 °C. Also, the IC50 at human FSH receptor is 100 nM. At hFSH-R, this compound displayed an IC50 of 50 nM.

Regarding `CS(=O)(=O)c1ccccc1-c1ccc(C(=O)N2Cc3ccc(C(=O)NCc4cccnc4)n3Cc3ccccc32)cc1` [Example 15], the melting point fell in the range of 153 to 156 °C. Moreover, on human FSH receptor, the IC50 was determined as 1100 nM. The compound further gave an IC50 against hFSH-R of 370 nM.

With `COc1cc(C(=O)N2Cc3ccc(C(=O)NCc4cccnc4)n3Cc3ccccc32)ccc1-c1ccccc1C` [Example 1], the melting point was in the range of 165 to 167 °C. Besides, the IC50 at human FSH receptor was determined as 1000 nM. The compound further registered an IC50 on hFSH-R of 200 nM.

`N#CCc1ccccc1-c1ccc(C(=O)N2Cc3ccc(C(=O)NCc4cccnc4)n3Cc3ccccc32)cc1` [Example 17] returned a melting point of 105 to 108 °C. Besides, the IC50 at human FSH receptor stood at 290 nM. Also, at hFSH-R, the IC50 came to 130 nM.

`CC(=O)c1ccccc1-c1ccc(C(=O)N2Cc3ccc(C(=O)NCc4cccnc4)n3Cc3ccccc32)cc1C` [Example 29] returned a melting point of 171 to 172 °C. Also, the IC50 on human FSH receptor is 900 nM. This compound also yielded an IC50 on hFSH-R of 400 nM.

The compound `COCc1ccccc1-c1ccc(C(=O)N2Cc3ccc(C(=O)NCc4cccnc4)n3Cc3ccccc32)cc1C` [Example 49] displayed a melting point of 163 to 164 °C. Moreover, the IC50 on human FSH receptor stood at 600 nM. Further, half-maximal inhibition against hFSH-R (IC50) was put at 100 nM.

With `COC(=O)c1ccccc1-c1ccc(C(=O)N2Cc3ccc(C(=O)NCc4cccnc4)n3Cc3ccccc32)cc1` [Example 63], the melting point was 179.5 to 180.5 °C. Further, the IC50 at human FSH receptor amounted to 1180 nM. In addition, it took 380 nM to reach half-maximal inhibition against hFSH-R (IC50).

The values are drawn from patent publication US7678787B2, “Pyrrolobenzodiazepine pyridine carboxamides and derivatives as follicle-stimulating hormone receptor antagonists” (Wyeth, priority 2005, dated 2010).
